Source: ChEMBL document CHEMBL1139913, “Synthesis, biological evaluations, and tubulin binding poses of C-2alpha sulfur linked taxol analogues” (Bioorg Med Chem Lett, 2007)

What was measured:
[1] = Cytotoxicity against A2780/AD cells by MTT assay; assay type: functional, cell-based; conditions: Homo sapiens, A2780 ADR
A2780 = experiment: Cytotoxicity against A2780 cells by MTT assay; assay type: functional, cell-based; conditions: Homo sapiens

SMILES	IC50 [1]	IC50 (A2780)
CC(=O)O[C@H]1C(=O)[C@@]2(C)[C@H]([C@H](SC(=O)c3ccccc3)[C@]3(O)C[C@H](OC(=O)[C@H](O)[C@@H](NC(=O)c4ccccc4)c4ccccc4)C(C)=C1C3(C)C)[C@]1(OC(C)=O)CO[C@@H]1C[C@@H]2O	27 µM	11.7 µM
CC(=O)O[C@H]1C(=O)[C@@]2(C)[C@H]([C@H](SCc3ccccc3)[C@]3(O)C[C@H](OC(=O)[C@H](O)[C@@H](NC(=O)c4ccccc4)c4ccccc4)C(C)=C1C3(C)C)[C@]1(OC(C)=O)CO[C@@H]1C[C@@H]2O	9.4 µM	9.9 µM
CC(=O)O[C@H]1C(=O)[C@@]2(C)[C@H]([C@H](SC(=O)c3ccccc3)[C@]3(O)C[C@H](OC(=O)[C@H](O)[C@@H](NC(=O)OC(C)(C)C)c4ccccc4)C(C)=C1C3(C)C)[C@]1(OC(C)=O)CO[C@@H]1C[C@@H]2O	6.96 µM	2.4 µM
CC(=O)O[C@H]1C(=O)[C@@]2(C)[C@H]([C@H](SCc3ccccc3)[C@]3(O)C[C@H](OC(=O)[C@H](O)[C@@H](NC(=O)OC(C)(C)C)c4ccccc4)C(C)=C1C3(C)C)[C@]1(OC(C)=O)CO[C@@H]1C[C@@H]2O	8.3 µM	3.5 µM
CC(=O)O[C@H]1C(=O)[C@@]2(C)[C@H]([C@H](OC(=O)c3ccccc3)[C@]3(O)C[C@H](OC(=O)[C@H](O)[C@@H](NC(=O)c4ccccc4)c4ccccc4)C(C)=C1C3(C)C)[C@]1(OC(C)=O)CO[C@@H]1C[C@@H]2O [PACLITAXEL]	0.92 µM	0.0016 µM
